Test results published in patent US20150259295A1, “SUBSTITUTED PYRAZOLE COMPOUNDS AS LPAR ANTAGONISTS” (Hoffmann-La Roche Inc., priority 2012, published 2015).
pIC50: −log10 of the molar value.

How the values were obtained:
[1] = target: human recombinant LPA1 Lysophospholipid receptor (Homo sapiens, UniProt Q92633); assay: Calcium flux assay using FLIPR, LPA1R antagonist activity; format: cell-based; conditions: for pIC50: ChemiScreen calcium-optimized stable cell line, FLIPR calcium flux, antagonist mode
Chain of human recombinant LPA1 Lysophospholipid receptor (Q92633 whole entry): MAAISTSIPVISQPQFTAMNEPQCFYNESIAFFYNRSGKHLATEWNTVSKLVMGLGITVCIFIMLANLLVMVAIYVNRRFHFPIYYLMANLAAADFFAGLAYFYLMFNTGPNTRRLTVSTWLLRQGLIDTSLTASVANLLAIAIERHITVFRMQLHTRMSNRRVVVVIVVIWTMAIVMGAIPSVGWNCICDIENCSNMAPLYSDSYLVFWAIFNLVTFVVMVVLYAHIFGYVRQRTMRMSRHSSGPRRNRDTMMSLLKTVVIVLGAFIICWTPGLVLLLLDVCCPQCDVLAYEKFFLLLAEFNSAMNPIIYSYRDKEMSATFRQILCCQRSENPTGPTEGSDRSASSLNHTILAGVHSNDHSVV
Protocol: (§1) Calcium Flux Assay Using Fluorometric Imaging Plate Reader (FLIPR)
Cell Culture Conditions: The ChemiScreen Calcium-optimized stable cell line containing the human recombinant LPA1 Lysophospholipid receptor was purchased from Chemicon International, Inc./Millipore. The cells were cultured in DMEM-high glucose supplemented with 10% fetal bovine serum, 2 mM glutamine, 100 U/mL penicillin/100 μg/mL streptomycin, 1× non-essential amino acids, 10 mM HEPES and 0.25 mg/mL Geneticin. Cells were harvested with trypsin-EDTA and counted using ViaCount reagent. The cell suspension volume was adjusted to 2.0×10^5 cells/mL with complete growth media. Aliquots of 50 μL were dispensed into 384 well black/clear tissue culture treated plates (BD) and the microplates were placed in a 37° C. incubator overnight. The following day plates were used in the assay.
Dye Loading and Assay: Loading Buffer (FLIPR Calcium-4, Molecular Devices) was prepared by dissolving the contents of one bottle into 100 mL Hank's Balanced Salt Solution containing 20 mM HEPES and 2.5 mM probenecid. Plates were loaded onto Biotek plate washer and growth media was removed and replaced with 20 µL of Hank's Balanced Salt Solution containing 20 mM HEPES and 2.5 mM probenecid, followed by 25 μL of Loading Buffer. The plates were then incubated for 30 minutes at 37° C.
During the incubation, test compounds were prepared by adding 90 μL of HBSS/20 mM HEPES/0.1% BSA buffer to 2 μL of serially diluted compounds. To prepare serial dilutions, 10 mM stocks of compounds were prepared in 100% DMSO. The compound dilution plate was set up as follows: well #1 received 29 μL of stock compound and 31 μL DMSO; wells 2-10 received 40 μL of DMSO; mixed and transferred 20 μL of solution from well #1 into well #2; continued with 1:3 serial dilutions out 10 steps; transferred 2 μL of diluted compound into duplicate wells of 384 well “assay plate” and then added the 90 μL of buffer.
(§2) After incubation, both the cell and “assay” plates were brought to the FLIPR and 20 μL of the diluted compounds were transferred to the cell plates by the FLIPR. Compound addition was monitored by FLIPR to detect any agonist activity of the compounds. Plates were then incubated for 30 minutes at room temperature protected from light. After the incubation, plates were returned to the FLIPR and 20 μL of 4.5× concentrated agonist was added to the cell plates. During the assay, fluorescence readings were taken simultaneously from all 384 wells of the cell plate every 1.5 seconds. Five readings were taken to establish a stable baseline, then 20 μL of sample was rapidly (30 μL/sec) and simultaneously added to each well of the cell plate. The fluorescence was continuously monitored before, during and after sample addition for a total elapsed time of 100 seconds. Responses (increase in peak fluorescence) in each well following agonist addition was determined. The initial fluorescence reading from each well, prior to ligand stimulation, was used as zero baseline value for the data from that well. The responses were expressed as % inhibition of the buffer control.

LPA3R = target: T1, LPA3R (Homo sapiens, UniProt Q9UBY5); assay: LPA3R antagonist activity (Table 1, calcium flux FLIPR); format: cell-based
T1 sequence (Q9UBY5 1-353): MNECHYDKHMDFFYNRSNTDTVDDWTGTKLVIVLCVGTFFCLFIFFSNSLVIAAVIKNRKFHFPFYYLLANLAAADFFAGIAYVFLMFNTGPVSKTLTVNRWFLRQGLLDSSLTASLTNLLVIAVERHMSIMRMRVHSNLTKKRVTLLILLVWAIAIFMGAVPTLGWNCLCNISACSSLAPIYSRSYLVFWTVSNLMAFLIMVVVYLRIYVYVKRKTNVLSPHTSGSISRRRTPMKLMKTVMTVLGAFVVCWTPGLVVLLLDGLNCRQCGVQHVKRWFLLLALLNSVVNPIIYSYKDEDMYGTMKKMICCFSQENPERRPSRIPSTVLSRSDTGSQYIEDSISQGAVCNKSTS
Protocol: as §1, §2

Compound	pIC50 [1]	pIC50 (LPA3R)	inhibition at 30 µM [1] [%]	inhibition at 10 µM ([1]; @ 10 μM) [%]
CC[C@@H](C)OC(=O)Nc1c(-c2ccc(-c3ccc(C4(C(=O)O)CC4)cc3)cc2)cnn1C [Example 14, (R)-1-{4′-[5-(sec-Butoxycarbonylamino)-1-methyl-1H-pyrazol-4-yl]-biphenyl-4-yl}-cyclopropanecarboxylic acid]	7.42	< 4.52		
CC(C)[C@@H](C)OC(=O)Nc1c(-c2ccc(-c3ccc(C4(C(=O)O)CC4)cc3)cc2)cnn1C [Example 15, (R)-1-{4′-[5-(1,2-Dimethyl-propoxycarbonylamino)-1-methyl-1H-pyrazol-4-yl]-biphenyl-4-yl}-cyclopropanecarboxylic acid]	6.97	< 4.52		
C[C@@H](OC(=O)Nc1c(-c2ccc(-c3ccc(C4(C(=O)O)CC4)cc3)cc2)cnn1C)c1ccccc1F [Example 16, (R)-1-{4′-[5-((1-(2-Fluorophenyl)ethoxy)carbonylamino)-1-methyl-1H-pyrazol-4-yl]-biphenyl-4-yl}-cyclopropanecarboxylic acid]	7.62	5.24		
C[C@@H](OC(=O)Nc1c(-c2ccc(-c3ccc(C4(C(=O)O)CC4)cc3)cc2)cnn1C)c1cccc(C(F)(F)F)c1 [Example 17, (R)-1-{4′-[1-Methyl-5-((1-(3-(trifluoromethyl)phenyl)ethoxy)carbonylamino)-1H-pyrazol-4-yl]-biphenyl-4-yl}-cyclopropanecarboxylic acid]	7.38	6.32		
CC(OC(=O)Nc1c(-c2ccc(-c3ccc(C4(C(=O)O)CC4)cc3)cc2)cnn1C)c1ccc(F)cc1 (stereo not drawn) [Example 18, 1-{4′-[5-((1-(4-fluorophenyl)ethoxy)carbonylamino)-1-methyl-1H-pyrazol-4-yl]-biphenyl-4-yl}-cyclopropanecarboxylic acid]	7.24	5.08		
Cn1ncc(-c2ccc(-c3ccc(C4(C(=O)O)CC4)cc3)cc2)c1NC(=O)OC1CCC1 [Example 19, 1-{4′-[5-(cyclobutoxycarbonylamino)-1-methyl-1H-pyrazol-4-yl]-biphenyl-4-yl}-cyclopropanecarboxylic acid]	6.75	< 4.52		
Cn1ncc(-c2ccc(-c3ccc(C4(C(=O)O)CC4)cc3)cc2)c1NC(=O)OC1COC1 [Example 20, 1-{4′-[1-Methyl-5-((oxetan-3-yloxy)carbonylamino)-1H-pyrazol-4-yl]-biphenyl-4-yl}-cyclopropanecarboxylic acid]	< 4.52	< 4.52		
C[C@@H](OC(=O)Nc1c(-c2ccccc2F)cnn1C)c1ccccc1Cl [Example 21, [4-(2-Fluoro-phenyl)-2-methyl-2H-pyrazol-3-yl]-carbamic acid (R)-1-(2-chloro-phenyl)-ethyl ester]	6.19	< 4.52	97.2	
C[C@H](OC(=O)Nc1c(-c2ccccc2F)cnn1C)c1ccccc1Cl [Example 22, [4-(2-Fluoro-phenyl)-2-methyl-2H-pyrazol-3-yl]-carbamic acid (S)-1-(2-chloro-phenyl)-ethyl ester]	< 4.52	< 4.52		
C[C@@H](OC(=O)Nc1c(-c2ccccc2F)cnn1C)c1cccc(C(F)(F)F)c1 [Example 23, [4-(2-Fluoro-phenyl)-2-methyl-2H-pyrazol-3-yl]-carbamic acid (R)-1-(3-trifluoromethyl-phenyl)-ethyl ester]	< 4.52	< 4.52		
Cn1ncc(-c2ccc(-c3ccc(C4(C(=O)O)CC4)cc3)cc2)c1NC(=O)NCc1ccccc1 [Example 24, 1-{4′-[5-(3-Benzyl-ureido)-1-methyl-1H-pyrazol-4-yl]-biphenyl-4-yl}-cyclopropanecarboxylic acid]	6.24	< 4.52		82.8
C[C@@H](CC(=O)Nc1c(-c2ccc(-c3ccc(C4(C(=O)O)CC4)cc3)cc2)cnn1C)c1ccccc1 [Example 25, 1-{4′-[1-Methyl-5-((S)-3-phenyl-butyrylamino)-1H-pyrazol-4-yl]-biphenyl-4-yl}-cyclopropanecarboxylic acid]	6.06	< 4.52	85.5	
